Data from ChEMBL document CHEMBL1201862, “PubChem BioAssay data set” (2004).
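Grown in 96-well plates, cells were treated for 48 hours with each compound at five concentrations. Insufficient inhibition: endpoint recorded as highest concentration tested. GI50: concentration for 50% inhibition of growth.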 The source made the active and inactive calls. Cut-off read from the data, not from the text of the source: active = GI50 up to about 1.1 µM and inactive = higher.

Key:
Experiment in all cases: inhibition of tumour cell growth, NCI panel, 48 h
786-0 = tested on: 786-0
A498 = tested on: A498
A549 = tested on: A549
ACHN = tested on: ACHN
BT-549 = tested on: BT-549
CAKI-1 = tested on: CAKI-1
CCRF-CEM = tested on: CCRF-CEM
COLO 205 = tested on: COLO 205
EKVX = tested on: EKVX
HCC 2998 = tested on: HCC 2998
HCT-116 = tested on: HCT-116
HCT-15 = tested on: HCT-15
HL-60 = tested on: HL-60
HOP-62 = tested on: HOP-62
HOP-92 = tested on: HOP-92
HT-29 = tested on: HT-29
Hs-578T = tested on: Hs-578T
IGROV-1 = tested on: IGROV-1
K562 = tested on: K562
KM12 = tested on: KM12
LOX IMVI = tested on: LOX IMVI
M14 = tested on: M14
MCF7 = tested on: MCF7
MDA-MB-231 = tested on: MDA-MB-231
MDA-MB-435 = tested on: MDA-MB-435
MDA-N = tested on: MDA-N
MOLT-4 = tested on: MOLT-4
Malme-3M = tested on: Malme-3M
NCI-H226 = tested on: NCI-H226
NCI-H23 = tested on: NCI-H23
NCI-H460 = tested on: NCI-H460
NCI/ADR-RES = tested on: NCI/ADR-RES
OVCAR-3 = tested on: OVCAR-3
OVCAR-4 = tested on: OVCAR-4
OVCAR-5 = tested on: OVCAR-5
OVCAR-8 = tested on: OVCAR-8
PC-3 = tested on: PC-3
RXF 393 = tested on: RXF 393
SF-295 = tested on: SF-295
SF-539 = tested on: SF-539
SK-MEL-28 = tested on: SK-MEL-28
SK-MEL-2 = tested on: SK-MEL-2
SK-MEL-5 = tested on: SK-MEL-5
SK-OV-3 = tested on: SK-OV-3
SN12C = tested on: SN12C
SNB-19 = tested on: SNB-19
SR = tested on: SR
SW-620 = tested on: SW-620
TK-10 = tested on: TK-10
U-251 = tested on: U-251
UACC-257 = tested on: UACC-257
UACC-62 = tested on: UACC-62
UO-31 = tested on: UO-31

SMILES: Cc1ccc(S(=O)(=O)N/N=C2/C(=O)Nc3c(Cl)cc(Cl)cc32)cc1
- GI50 (786-0): > 100 µM (inactive)
- GI50 (A498): 55.5 µM (inactive)
- GI50 (A549): 67.5 µM (inactive)
- GI50 (ACHN): > 100 µM (inactive)
- GI50 (BT-549): 86.7 µM (inactive)
- GI50 (CAKI-1): 59.4 µM (inactive)
- GI50 (CCRF-CEM): 55.6 µM (inactive)
- GI50 (COLO 205): 68.7 µM (inactive)
- GI50 (EKVX): 5.52 µM (inactive)
- GI50 (HCC 2998): 75.9 µM (inactive)
- GI50 (HCT-116): 44.3 µM (inactive)
- GI50 (HCT-15): 68.9 µM
- GI50 (HL-60): 36.9 µM (inactive)
- GI50 (HOP-62): > 100 µM (inactive)
- GI50 (HOP-92): > 100 µM (inactive)
- GI50 (HT-29): 39.1 µM (inactive)
- GI50 (Hs-578T): 76.6 µM (inactive)
- GI50 (IGROV-1): 32.2 µM (inactive)
- GI50 (K562): 72.1 µM (inactive)
- GI50 (KM12): > 100 µM (inactive)
- GI50 (LOX IMVI): 37.8 µM (inactive)
- GI50 (M14): 73.5 µM (inactive)
- GI50 (MCF7): 75 µM (inactive)
- GI50 (MDA-MB-231): > 100 µM (inactive)
- GI50 (MDA-MB-435): 51.6 µM (inactive)
- GI50 (MDA-N): 68.9 µM (inactive)
- GI50 (MOLT-4): 38.5 µM (inactive)
- GI50 (Malme-3M): 91.4 µM (inactive)
- GI50 (NCI-H226): > 100 µM (inactive)
- GI50 (NCI-H23): 63.1 µM (inactive)
- GI50 (NCI-H460): 44.2 µM (inactive)
- GI50 (NCI/ADR-RES): 40 µM (inactive)
- GI50 (OVCAR-3): 60.3 µM (inactive)
- GI50 (OVCAR-4): > 100 µM (inactive)
- GI50 (OVCAR-5): > 100 µM (inactive)
- GI50 (OVCAR-8): 38.8 µM (inactive)
- GI50 (PC-3): 78.3 µM (inactive)
- GI50 (RXF 393): 43.3 µM (inactive)
- GI50 (SF-295): 35.8 µM (inactive)
- GI50 (SF-539): 66.1 µM (inactive)
- GI50 (SK-MEL-28): > 100 µM (inactive)
- GI50 (SK-MEL-2): > 100 µM (inactive)
- GI50 (SK-MEL-5): 59.6 µM (inactive)
- GI50 (SK-OV-3): > 100 µM (inactive)
- GI50 (SN12C): > 100 µM (inactive)
- GI50 (SNB-19): > 100 µM (inactive)
- GI50 (SR): 34.4 µM (inactive)
- GI50 (SW-620): 99.1 µM (inactive)
- GI50 (TK-10): 79.1 µM (inactive)
- GI50 (U-251): 58.1 µM (inactive)
- GI50 (UACC-257): > 100 µM (inactive)
- GI50 (UACC-62): 62.5 µM (inactive)
- GI50 (UO-31): 41.6 µM (inactive)
